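Compound exposure: 48 hours, 5 concentrations, 96-well plates. The concentration for 50% growth inhibition is given as GI50. TGI: concentration producing complete growth inhibition.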
Tests used:
Assay in all cases: NCI tumour cell line growth inhibition, 48 h
HS 578T breast = tested on: HS 578T breast
HL-60(TB) leukemia = tested on: HL-60(TB) leukemia
DU-145 prostate = tested on: DU-145 prostate
SK-MEL-2 melanoma = tested on: SK-MEL-2 melanoma
HOP-62 NSCLC = tested on: HOP-62 NSCLC
MDA-MB-435 = tested on: MDA-MB-435
UACC-257 melanoma = tested on: UACC-257 melanoma
HCT-116 colon = tested on: HCT-116 colon
UACC-62 melanoma = tested on: UACC-62 melanoma
ACHN renal = tested on: ACHN renal
CCRF-CEM leukemia = tested on: CCRF-CEM leukemia
SK-OV-3 ovarian = tested on: SK-OV-3 ovarian
SW-620 colon = tested on: SW-620 colon
MCF7 breast = tested on: MCF7 breast
MDA-MB-468 breast = tested on: MDA-MB-468 breast
SK-MEL-5 melanoma = tested on: SK-MEL-5 melanoma
NCI-H460 lung = tested on: NCI-H460 lung
PC-3 prostate = tested on: PC-3 prostate
T-47D breast = tested on: T-47D breast
KM12 colon = tested on: KM12 colon
A549 NSCLC = tested on: A549 NSCLC
MALME-3M melanoma = tested on: MALME-3M melanoma
K-562 leukemia = tested on: K-562 leukemia
SF-539 CNS = tested on: SF-539 CNS
EKVX NSCLC = tested on: EKVX NSCLC
BT-549 breast = tested on: BT-549 breast
OVCAR-4 ovarian = tested on: OVCAR-4 ovarian
SR leukemia = tested on: SR leukemia
HCC-2998 colon = tested on: HCC-2998 colon
MOLT-4 leukemia = tested on: MOLT-4 leukemia
U251 CNS = tested on: U251 CNS
M14 melanoma = tested on: M14 melanoma
TK-10 renal = tested on: TK-10 renal
SN12C renal = tested on: SN12C renal
SF-295 CNS = tested on: SF-295 CNS
COLO 205 colon = tested on: COLO 205 colon
NCI-H226 lung = tested on: NCI-H226 lung
IGROV1 ovarian = tested on: IGROV1 ovarian
SK-MEL-28 melanoma = tested on: SK-MEL-28 melanoma
UO-31 renal = tested on: UO-31 renal
HOP-92 NSCLC = tested on: HOP-92 NSCLC
OVCAR-5 ovarian = tested on: OVCAR-5 ovarian
HT29 colon = tested on: HT29 colon
OVCAR-3 ovarian = tested on: OVCAR-3 ovarian
NCI-H23 lung = tested on: NCI-H23 lung
MDA-MB-231 breast = tested on: MDA-MB-231 breast
SNB-75 CNS = tested on: SNB-75 CNS
RPMI-8226 leukemia = tested on: RPMI-8226 leukemia
A498 renal = tested on: A498 renal
LOX IMVI melanoma = tested on: LOX IMVI melanoma
OVCAR-8 ovarian = tested on: OVCAR-8 ovarian
786-0 renal = tested on: 786-0 renal
RXF 393 renal = tested on: RXF 393 renal
SNB-19 CNS = tested on: SNB-19 CNS
HCT-15 colon = tested on: HCT-15 colon
CAKI-1 renal = tested on: CAKI-1 renal
NCI/ADR-RES ovarian = tested on: NCI/ADR-RES ovarian
NCI-H522 lung = tested on: NCI-H522 lung
SF-268 CNS = tested on: SF-268 CNS

Structure (SMILES): O=C(c1ccc(Cl)cc1)C1[C@H](c2ccccc2Cl)[C@@H](c2ccccc2)NC12C(=O)Nc1ccc(Br)cc12 (stereo partly drawn)
- GI50 (HS 578T breast): 16.9 µM
- TGI (HS 578T breast): 42.7 µM
- GI50 (HL-60(TB) leukemia): 20.8 µM
- TGI (HL-60(TB) leukemia): 49.1 µM
- GI50 (DU-145 prostate): 19.2 µM
- TGI (DU-145 prostate): 40.5 µM
- GI50 (SK-MEL-2 melanoma): 15.9 µM
- TGI (SK-MEL-2 melanoma): 31.6 µM
- GI50 (HOP-62 NSCLC): 15 µM
- TGI (HOP-62 NSCLC): 30 µM
- GI50 (MDA-MB-435): 15.2 µM
- TGI (MDA-MB-435): 29.6 µM
- GI50 (UACC-257 melanoma): 17.6 µM
- TGI (UACC-257 melanoma): 37.8 µM
- GI50 (HCT-116 colon): 14.4 µM
- TGI (HCT-116 colon): 27.6 µM
- GI50 (UACC-62 melanoma): 13.7 µM
- TGI (UACC-62 melanoma): 27 µM
- GI50 (ACHN renal): 22.8 µM
- TGI (ACHN renal): 69.5 µM
- GI50 (CCRF-CEM leukemia): 24.4 µM
- TGI (CCRF-CEM leukemia): 68.2 µM
- GI50 (SK-OV-3 ovarian): 24.3 µM
- TGI (SK-OV-3 ovarian): 70.2 µM
- GI50 (SW-620 colon): 16.1 µM
- TGI (SW-620 colon): 31.4 µM
- GI50 (MCF7 breast): 15.7 µM
- TGI (MCF7 breast): 37.3 µM
- GI50 (MDA-MB-468 breast): 11 µM
- TGI (MDA-MB-468 breast): 26.9 µM
- GI50 (SK-MEL-5 melanoma): 16.1 µM
- TGI (SK-MEL-5 melanoma): 29.8 µM
- GI50 (NCI-H460 lung): 17.7 µM
- TGI (NCI-H460 lung): 35 µM
- GI50 (PC-3 prostate): 15.7 µM
- TGI (PC-3 prostate): 37.5 µM
- GI50 (T-47D breast): 15.2 µM
- TGI (T-47D breast): 30.3 µM
- GI50 (KM12 colon): 19.7 µM
- TGI (KM12 colon): 44.7 µM
- GI50 (A549 NSCLC): 17.5 µM
- TGI (A549 NSCLC): 42.3 µM
- GI50 (MALME-3M melanoma): 15.5 µM
- TGI (MALME-3M melanoma): 29 µM
- GI50 (K-562 leukemia): 26.8 µM
- TGI (K-562 leukemia): 88.9 µM
- GI50 (SF-539 CNS): 16.5 µM
- TGI (SF-539 CNS): 31.8 µM
- GI50 (EKVX NSCLC): 16.6 µM
- TGI (EKVX NSCLC): 44 µM
- GI50 (BT-549 breast): 14.5 µM
- TGI (BT-549 breast): 28 µM
- GI50 (OVCAR-4 ovarian): 18.3 µM
- TGI (OVCAR-4 ovarian): 49.7 µM
- GI50 (SR leukemia): 16.5 µM
- TGI (SR leukemia): 41.7 µM
- GI50 (HCC-2998 colon): 15.5 µM
- TGI (HCC-2998 colon): 31.1 µM
- GI50 (MOLT-4 leukemia): 21.2 µM
- TGI (MOLT-4 leukemia): 61.7 µM
- GI50 (U251 CNS): 16.1 µM
- TGI (U251 CNS): 29.9 µM
- GI50 (M14 melanoma): 15.3 µM
- TGI (M14 melanoma): 29.3 µM
- GI50 (TK-10 renal): 18.3 µM
- TGI (TK-10 renal): 50.6 µM
- GI50 (SN12C renal): 15 µM
- TGI (SN12C renal): 28.2 µM
- GI50 (SF-295 CNS): 16.5 µM
- TGI (SF-295 CNS): 32.4 µM
- GI50 (COLO 205 colon): 17.4 µM
- TGI (COLO 205 colon): 31.6 µM
- GI50 (NCI-H226 lung): 14.4 µM
- TGI (NCI-H226 lung): 29.3 µM
- GI50 (IGROV1 ovarian): 17.1 µM
- TGI (IGROV1 ovarian): 41 µM
- GI50 (SK-MEL-28 melanoma): 16 µM
- TGI (SK-MEL-28 melanoma): 29.7 µM
- GI50 (UO-31 renal): 13.4 µM
- TGI (UO-31 renal): 30.6 µM
- GI50 (HOP-92 NSCLC): 15.6 µM
- TGI (HOP-92 NSCLC): 31 µM
- GI50 (OVCAR-5 ovarian): 14.9 µM
- TGI (OVCAR-5 ovarian): 29.6 µM
- GI50 (HT29 colon): 17.9 µM
- TGI (HT29 colon): 37 µM
- GI50 (OVCAR-3 ovarian): 15.6 µM
- TGI (OVCAR-3 ovarian): 32.4 µM
- GI50 (NCI-H23 lung): 14.9 µM
- TGI (NCI-H23 lung): 31.1 µM
- GI50 (MDA-MB-231 breast): 15.6 µM
- TGI (MDA-MB-231 breast): 29.4 µM
- GI50 (SNB-75 CNS): 10.5 µM
- TGI (SNB-75 CNS): 35 µM
- GI50 (RPMI-8226 leukemia): 26 µM
- TGI (RPMI-8226 leukemia): 84.5 µM
- GI50 (A498 renal): 19.9 µM
- TGI (A498 renal): 46.7 µM
- GI50 (LOX IMVI melanoma): 15.2 µM
- TGI (LOX IMVI melanoma): 28.5 µM
- GI50 (OVCAR-8 ovarian): 17.7 µM
- TGI (OVCAR-8 ovarian): 36.6 µM
- GI50 (786-0 renal): 16.6 µM
- TGI (786-0 renal): 34.4 µM
- GI50 (RXF 393 renal): 14.1 µM
- TGI (RXF 393 renal): 28.2 µM
- GI50 (SNB-19 CNS): 24.8 µM
- TGI (SNB-19 CNS): 78.3 µM
- GI50 (HCT-15 colon): 15.8 µM
- TGI (HCT-15 colon): 30.5 µM
- GI50 (CAKI-1 renal): 14.8 µM
- TGI (CAKI-1 renal): 33.9 µM
- GI50 (NCI/ADR-RES ovarian): 15.5 µM
- TGI (NCI/ADR-RES ovarian): 30.7 µM
- GI50 (NCI-H522 lung): 14.1 µM
- TGI (NCI-H522 lung): 29.9 µM
- GI50 (SF-268 CNS): 16.6 µM
- TGI (SF-268 CNS): 38.7 µM
